How the values were obtained:
Experiment in all cases: Kinase selectivity, DiscoverX scanMAX Kinase assay panel (% control)
Assay type in all cases: binding
[1] = target: T1, kinases of the scanMAX Kinase assay panel (Homo sapiens, UniProt P10721, T670I/V559D); conditions: KIT(V559D, T670I); 1 uM
T1 construct: purchased DiscoverX Co. (contract measurement) scanMAX Kinase assay panel
Method in brief: (§1)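 Percent of control computed as (compound − positive control)/(negative control − positive control) × 100, DMSO defining 100% and positive control 0%. Each panel kinase exposed to 1 uM compound; values under 35% taken to mean the compound acts on that kinase.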

[2] = target: T2, kinases of the scanMAX Kinase assay panel (Homo sapiens, UniProt P21802); conditions: FGFR2; 1 uM
T2 construct: purchased DiscoverX Co. (contract measurement) scanMAX Kinase assay panel
T2 sequence (P21802 22-821): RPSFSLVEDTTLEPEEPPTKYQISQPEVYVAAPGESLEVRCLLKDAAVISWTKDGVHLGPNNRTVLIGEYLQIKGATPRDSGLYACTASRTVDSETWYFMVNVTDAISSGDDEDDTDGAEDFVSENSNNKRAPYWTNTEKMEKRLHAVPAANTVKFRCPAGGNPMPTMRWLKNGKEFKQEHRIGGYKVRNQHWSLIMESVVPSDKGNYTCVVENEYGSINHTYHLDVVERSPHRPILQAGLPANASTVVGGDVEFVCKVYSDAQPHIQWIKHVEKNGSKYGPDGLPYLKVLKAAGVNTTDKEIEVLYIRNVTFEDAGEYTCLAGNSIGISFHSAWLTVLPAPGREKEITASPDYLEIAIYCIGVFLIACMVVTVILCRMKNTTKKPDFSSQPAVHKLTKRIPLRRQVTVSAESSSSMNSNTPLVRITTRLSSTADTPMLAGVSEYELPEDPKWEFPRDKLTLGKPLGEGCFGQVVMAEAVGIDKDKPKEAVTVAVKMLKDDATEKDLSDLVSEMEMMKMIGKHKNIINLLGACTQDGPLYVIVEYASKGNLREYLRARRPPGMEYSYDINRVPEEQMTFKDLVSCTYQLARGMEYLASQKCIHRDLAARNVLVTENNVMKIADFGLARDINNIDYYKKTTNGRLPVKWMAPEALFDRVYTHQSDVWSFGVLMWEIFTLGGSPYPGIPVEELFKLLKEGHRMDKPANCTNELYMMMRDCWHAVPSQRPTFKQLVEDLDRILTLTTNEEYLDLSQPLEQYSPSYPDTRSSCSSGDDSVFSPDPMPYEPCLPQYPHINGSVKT
Method in brief: as §1

[3] = target: T3, kinases of the scanMAX Kinase assay panel (Homo sapiens, UniProt P35916); conditions: FLT4; 1 uM
T3 construct: purchased DiscoverX Co. (contract measurement) scanMAX Kinase assay panel
T3 sequence (P35916 25-1363): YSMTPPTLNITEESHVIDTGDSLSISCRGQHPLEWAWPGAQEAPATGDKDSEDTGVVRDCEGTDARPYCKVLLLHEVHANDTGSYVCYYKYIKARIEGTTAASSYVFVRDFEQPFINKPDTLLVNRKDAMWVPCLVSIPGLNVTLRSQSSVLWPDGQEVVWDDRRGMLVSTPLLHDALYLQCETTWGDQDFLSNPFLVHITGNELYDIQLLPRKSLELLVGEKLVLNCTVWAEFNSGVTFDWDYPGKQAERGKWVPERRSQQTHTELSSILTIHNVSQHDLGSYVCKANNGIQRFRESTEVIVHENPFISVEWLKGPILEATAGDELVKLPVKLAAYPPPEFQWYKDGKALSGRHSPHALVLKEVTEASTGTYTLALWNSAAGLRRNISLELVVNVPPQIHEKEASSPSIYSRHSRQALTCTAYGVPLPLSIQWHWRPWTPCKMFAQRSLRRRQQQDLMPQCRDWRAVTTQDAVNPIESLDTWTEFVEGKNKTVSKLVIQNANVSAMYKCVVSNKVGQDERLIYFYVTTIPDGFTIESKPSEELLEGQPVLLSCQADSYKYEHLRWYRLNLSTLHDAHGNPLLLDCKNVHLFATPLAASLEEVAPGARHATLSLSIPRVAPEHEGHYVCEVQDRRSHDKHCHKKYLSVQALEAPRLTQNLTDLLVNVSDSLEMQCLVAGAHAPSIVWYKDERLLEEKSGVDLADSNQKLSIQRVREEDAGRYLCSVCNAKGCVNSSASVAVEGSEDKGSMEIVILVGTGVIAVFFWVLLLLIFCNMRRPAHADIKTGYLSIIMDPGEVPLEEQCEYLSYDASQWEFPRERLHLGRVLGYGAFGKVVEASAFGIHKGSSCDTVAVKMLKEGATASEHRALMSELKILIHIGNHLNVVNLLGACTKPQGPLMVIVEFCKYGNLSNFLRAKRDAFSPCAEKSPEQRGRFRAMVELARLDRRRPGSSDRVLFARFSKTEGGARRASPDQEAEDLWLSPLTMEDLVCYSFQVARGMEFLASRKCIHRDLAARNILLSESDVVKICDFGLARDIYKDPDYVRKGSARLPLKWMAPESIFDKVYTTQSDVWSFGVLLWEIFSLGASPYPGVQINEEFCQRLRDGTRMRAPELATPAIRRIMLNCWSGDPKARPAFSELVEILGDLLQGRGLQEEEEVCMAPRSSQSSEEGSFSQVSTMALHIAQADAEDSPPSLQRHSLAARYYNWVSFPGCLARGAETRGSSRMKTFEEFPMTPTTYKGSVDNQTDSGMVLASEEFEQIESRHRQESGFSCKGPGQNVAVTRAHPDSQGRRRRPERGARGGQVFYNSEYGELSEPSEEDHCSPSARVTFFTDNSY
Method in brief: as §1

[4] = target: T4, kinases of the scanMAX Kinase assay panel (Homo sapiens, UniProt Q08345); conditions: DDR1; 1 uM
T4 construct: purchased DiscoverX Co. (contract measurement) scanMAX Kinase assay panel
T4 sequence (Q08345 19-913): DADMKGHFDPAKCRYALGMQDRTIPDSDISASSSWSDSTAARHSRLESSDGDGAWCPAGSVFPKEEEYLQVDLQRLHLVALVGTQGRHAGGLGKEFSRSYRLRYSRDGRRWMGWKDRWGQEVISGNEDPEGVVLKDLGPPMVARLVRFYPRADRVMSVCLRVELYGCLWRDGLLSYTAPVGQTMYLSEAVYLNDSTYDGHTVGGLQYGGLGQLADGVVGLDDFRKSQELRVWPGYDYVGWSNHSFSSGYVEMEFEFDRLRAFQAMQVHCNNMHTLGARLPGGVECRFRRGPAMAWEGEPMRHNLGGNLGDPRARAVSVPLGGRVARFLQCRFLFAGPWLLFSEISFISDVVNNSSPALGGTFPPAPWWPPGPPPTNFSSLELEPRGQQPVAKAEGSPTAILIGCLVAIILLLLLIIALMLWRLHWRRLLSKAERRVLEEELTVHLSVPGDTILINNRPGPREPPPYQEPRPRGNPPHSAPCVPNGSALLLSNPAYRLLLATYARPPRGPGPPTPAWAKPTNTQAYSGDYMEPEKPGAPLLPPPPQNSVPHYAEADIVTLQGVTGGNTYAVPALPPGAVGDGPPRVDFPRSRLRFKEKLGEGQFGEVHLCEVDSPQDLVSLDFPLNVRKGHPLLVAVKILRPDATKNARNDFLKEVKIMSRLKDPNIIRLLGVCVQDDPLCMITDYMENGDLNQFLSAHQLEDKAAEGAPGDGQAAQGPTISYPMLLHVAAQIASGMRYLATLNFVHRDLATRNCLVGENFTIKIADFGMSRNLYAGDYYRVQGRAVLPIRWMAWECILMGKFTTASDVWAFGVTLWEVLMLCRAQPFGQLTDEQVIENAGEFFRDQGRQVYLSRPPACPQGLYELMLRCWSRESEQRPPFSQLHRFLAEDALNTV
Method in brief: as §1

[5] = target: T5, kinases of the scanMAX Kinase assay panel (Homo sapiens, UniProt Q13163); conditions: MEK5; 1 uM
T5 construct: purchased DiscoverX Co. (contract measurement) scanMAX Kinase assay panel
T5 sequence (Q13163 1-448): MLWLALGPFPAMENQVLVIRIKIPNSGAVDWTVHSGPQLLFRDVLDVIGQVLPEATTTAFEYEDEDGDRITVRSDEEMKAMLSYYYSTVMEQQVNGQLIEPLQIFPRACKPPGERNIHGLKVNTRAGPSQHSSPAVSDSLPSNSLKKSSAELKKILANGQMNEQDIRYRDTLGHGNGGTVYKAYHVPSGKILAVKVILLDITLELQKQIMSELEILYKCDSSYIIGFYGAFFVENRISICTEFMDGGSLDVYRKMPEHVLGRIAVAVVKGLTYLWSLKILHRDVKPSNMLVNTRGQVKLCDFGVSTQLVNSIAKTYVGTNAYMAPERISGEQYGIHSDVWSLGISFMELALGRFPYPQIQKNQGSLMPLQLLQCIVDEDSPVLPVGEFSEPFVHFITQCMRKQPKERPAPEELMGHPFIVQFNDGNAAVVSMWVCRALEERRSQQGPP
Method in brief: as §1

[6] = target: T6, kinases of the scanMAX Kinase assay panel (Homo sapiens, UniProt Q96D53); conditions: ADCK4; 1 uM
T6 construct: purchased DiscoverX Co. (contract measurement) scanMAX Kinase assay panel
T6 sequence (Q96D53 1-544): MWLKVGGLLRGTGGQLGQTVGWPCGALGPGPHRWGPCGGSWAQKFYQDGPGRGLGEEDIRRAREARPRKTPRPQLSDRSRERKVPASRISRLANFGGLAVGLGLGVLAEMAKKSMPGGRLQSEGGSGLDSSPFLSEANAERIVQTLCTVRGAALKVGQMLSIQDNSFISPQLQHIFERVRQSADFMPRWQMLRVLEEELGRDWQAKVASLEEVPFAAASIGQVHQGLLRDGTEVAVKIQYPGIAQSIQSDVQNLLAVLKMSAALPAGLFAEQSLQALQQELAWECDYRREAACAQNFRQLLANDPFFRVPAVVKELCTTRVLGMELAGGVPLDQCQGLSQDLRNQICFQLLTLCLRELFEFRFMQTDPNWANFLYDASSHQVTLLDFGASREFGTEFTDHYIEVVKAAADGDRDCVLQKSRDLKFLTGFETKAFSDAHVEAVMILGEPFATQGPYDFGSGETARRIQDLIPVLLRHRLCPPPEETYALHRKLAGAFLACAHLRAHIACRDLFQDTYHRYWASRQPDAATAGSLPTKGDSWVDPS
Method in brief: as §1

[7] = target: T7, kinases of the scanMAX Kinase assay panel (Homo sapiens, UniProt Q9H3Y6); conditions: kinase SRMS; 1 uM in DMSO
T7 construct: purchased DiscoverX Co. (contract measurement) scanMAX Kinase assay panel
T7 sequence (Q9H3Y6 whole entry): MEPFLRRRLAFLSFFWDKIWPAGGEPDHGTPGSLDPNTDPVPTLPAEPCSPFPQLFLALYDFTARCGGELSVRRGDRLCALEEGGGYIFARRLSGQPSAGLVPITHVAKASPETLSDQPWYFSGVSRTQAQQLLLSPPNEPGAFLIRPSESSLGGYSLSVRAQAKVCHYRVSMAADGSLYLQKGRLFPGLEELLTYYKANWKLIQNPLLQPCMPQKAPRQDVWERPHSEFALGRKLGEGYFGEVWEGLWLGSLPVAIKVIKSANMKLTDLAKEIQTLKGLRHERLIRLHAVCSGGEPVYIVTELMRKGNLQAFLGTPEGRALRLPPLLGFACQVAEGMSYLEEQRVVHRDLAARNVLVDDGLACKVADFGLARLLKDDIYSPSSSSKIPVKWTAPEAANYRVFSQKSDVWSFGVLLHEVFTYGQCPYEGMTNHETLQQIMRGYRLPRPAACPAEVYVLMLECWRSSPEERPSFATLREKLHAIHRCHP
Method in brief: as §1

[8] = target: T8, kinases of the scanMAX Kinase assay panel (Homo sapiens, UniProt Q9UF33); conditions: EPHA6; 1 uM
T8 construct: purchased DiscoverX Co. (contract measurement) scanMAX Kinase assay panel
T8 sequence (Q9UF33 23-1036): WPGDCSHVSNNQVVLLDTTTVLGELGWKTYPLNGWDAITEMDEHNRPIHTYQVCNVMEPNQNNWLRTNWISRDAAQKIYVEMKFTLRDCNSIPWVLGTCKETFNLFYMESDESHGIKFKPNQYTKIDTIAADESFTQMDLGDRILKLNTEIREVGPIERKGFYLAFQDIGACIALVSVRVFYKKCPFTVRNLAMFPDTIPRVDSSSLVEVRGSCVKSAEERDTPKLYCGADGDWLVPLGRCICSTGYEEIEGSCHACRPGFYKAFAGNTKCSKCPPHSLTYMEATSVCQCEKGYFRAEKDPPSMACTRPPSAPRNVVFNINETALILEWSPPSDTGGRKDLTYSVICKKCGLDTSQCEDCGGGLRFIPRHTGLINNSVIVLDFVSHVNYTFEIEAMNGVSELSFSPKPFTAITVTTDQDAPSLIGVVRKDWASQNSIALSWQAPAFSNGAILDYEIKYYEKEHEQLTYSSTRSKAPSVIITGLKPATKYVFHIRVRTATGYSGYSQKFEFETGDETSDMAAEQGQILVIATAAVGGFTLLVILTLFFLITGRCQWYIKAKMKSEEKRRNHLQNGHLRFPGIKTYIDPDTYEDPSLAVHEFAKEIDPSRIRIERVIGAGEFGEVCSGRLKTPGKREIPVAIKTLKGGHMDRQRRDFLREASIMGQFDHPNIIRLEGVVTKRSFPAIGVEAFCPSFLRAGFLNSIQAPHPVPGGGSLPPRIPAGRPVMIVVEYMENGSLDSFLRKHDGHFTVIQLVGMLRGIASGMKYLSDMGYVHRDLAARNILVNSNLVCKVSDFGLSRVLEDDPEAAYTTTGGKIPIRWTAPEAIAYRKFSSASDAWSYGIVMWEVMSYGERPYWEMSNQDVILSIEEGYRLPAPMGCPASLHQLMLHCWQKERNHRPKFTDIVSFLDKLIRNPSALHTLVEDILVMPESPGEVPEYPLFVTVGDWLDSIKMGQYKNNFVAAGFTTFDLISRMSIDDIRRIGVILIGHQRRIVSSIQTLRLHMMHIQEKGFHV
Method in brief: as §1

[9] = target: T9, kinases of the scanMAX Kinase assay panel (Homo sapiens, UniProt Q9UPE1); conditions: kinase SRPK3; 1 uM in DMSO
T9 construct: purchased DiscoverX Co. (contract measurement) scanMAX Kinase assay panel
T9 sequence (Q9UPE1 whole entry): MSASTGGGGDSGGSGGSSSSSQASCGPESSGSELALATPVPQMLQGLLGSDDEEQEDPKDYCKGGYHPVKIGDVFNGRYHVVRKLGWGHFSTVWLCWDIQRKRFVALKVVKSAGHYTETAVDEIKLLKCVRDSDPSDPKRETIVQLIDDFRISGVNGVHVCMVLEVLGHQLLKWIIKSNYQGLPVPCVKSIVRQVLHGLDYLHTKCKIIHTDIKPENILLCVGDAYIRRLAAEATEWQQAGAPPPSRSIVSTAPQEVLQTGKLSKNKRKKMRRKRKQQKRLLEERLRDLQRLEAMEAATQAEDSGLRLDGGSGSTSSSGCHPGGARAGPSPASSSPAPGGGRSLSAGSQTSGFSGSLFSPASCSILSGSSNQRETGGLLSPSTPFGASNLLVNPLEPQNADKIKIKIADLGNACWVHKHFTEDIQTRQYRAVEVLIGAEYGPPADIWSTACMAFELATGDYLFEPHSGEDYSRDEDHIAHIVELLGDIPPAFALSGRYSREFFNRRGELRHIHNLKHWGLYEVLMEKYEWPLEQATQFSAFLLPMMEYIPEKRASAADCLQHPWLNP
Method in brief: as §1

T1 sequence (P10721 26-976 V559D/T670I): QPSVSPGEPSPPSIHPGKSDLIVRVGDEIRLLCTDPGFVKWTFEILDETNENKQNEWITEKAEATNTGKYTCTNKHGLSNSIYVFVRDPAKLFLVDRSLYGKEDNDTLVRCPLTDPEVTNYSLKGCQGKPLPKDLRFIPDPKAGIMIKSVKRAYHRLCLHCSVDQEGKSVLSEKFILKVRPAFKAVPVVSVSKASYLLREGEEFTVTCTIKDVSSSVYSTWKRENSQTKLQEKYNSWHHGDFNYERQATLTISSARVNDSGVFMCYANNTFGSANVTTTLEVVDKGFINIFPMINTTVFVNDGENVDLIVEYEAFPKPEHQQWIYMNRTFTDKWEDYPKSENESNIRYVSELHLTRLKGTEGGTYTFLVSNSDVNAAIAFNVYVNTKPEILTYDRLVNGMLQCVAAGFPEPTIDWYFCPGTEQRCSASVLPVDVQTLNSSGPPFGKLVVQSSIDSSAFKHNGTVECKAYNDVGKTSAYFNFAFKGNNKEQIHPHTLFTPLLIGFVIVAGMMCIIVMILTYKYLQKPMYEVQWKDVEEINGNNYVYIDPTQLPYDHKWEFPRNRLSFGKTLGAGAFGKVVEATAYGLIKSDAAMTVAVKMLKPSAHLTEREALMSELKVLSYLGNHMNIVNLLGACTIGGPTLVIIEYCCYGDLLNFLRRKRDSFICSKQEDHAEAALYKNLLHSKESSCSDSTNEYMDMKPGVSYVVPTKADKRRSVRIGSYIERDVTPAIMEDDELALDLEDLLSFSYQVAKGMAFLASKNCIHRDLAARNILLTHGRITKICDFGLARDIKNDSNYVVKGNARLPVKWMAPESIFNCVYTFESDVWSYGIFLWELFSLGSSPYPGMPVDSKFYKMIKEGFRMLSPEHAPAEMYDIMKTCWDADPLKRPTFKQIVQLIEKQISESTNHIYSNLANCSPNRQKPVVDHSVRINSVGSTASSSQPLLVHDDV

## CNc1nc(Nc2ccc(C(=O)N3CCOCC3)cc2OC)nc2[nH]cc(C#N)c12 [Example 1, 2-((2-methoxy-4-(morpholine-4-carbonyl)phenyl)amino)-4-(methylamino)-7H-pyrrolo[2,3-d]pyrimidine-5-carbonitrile]
[1]
  remaining binding at 1 µM: 73%
[2]
  remaining binding at 1 µM: 95%
[3]
  remaining binding at 1 µM: 100%
[4]
  remaining binding at 1 µM: 94%
[5]
  remaining binding at 1 µM: 47%
[6]
  remaining binding at 1 µM: 100%
[7]
  remaining binding at 1 µM: 69%
[8]
  remaining binding at 1 µM: 93%
[9]
  remaining binding at 1 µM: 93%

## CC1(Nc2nc(Nc3cnn([C@H]4CCN(C5COC5)C[C@@H]4F)c3Cl)nc3[nH]cc(C#N)c23)CC1 [Example 52, 2-((5-chloro-1-((3S,4S)-3-fluoro-1-(oxetane-3-yl)piperidine-4-yl)-1H-pyrazole-4-yl)amino)((1-methylcyclopropyl)amino)-7H-pyrrolo[2,3-d]pyrimidine-5-carbonitrile]
[1]
  remaining binding at 1 µM: 0.4%
[2]
  remaining binding at 1 µM: 26%
[3]
  remaining binding at 1 µM: 0.6%
[4]
  remaining binding at 1 µM: 50%
[5]
  remaining binding at 1 µM: 0.05%
[6]
  remaining binding at 1 µM: 76%
[7]
  remaining binding at 1 µM: 41%
[8]
  remaining binding at 1 µM: 43%
[9]
  remaining binding at 1 µM: 2.5%

## CCNc1nc(Nc2ccc(C(=O)N3CCC(N4CCOCC4)CC3)cc2OC)nc2[nH]cc(C(F)(F)F)c12 [Example 104, (4-((4-(ethylamino)-5-(trifluoromethyl)-7H-pyrrolo[2,3-d]pyrimidine-2-yl)amino)-3-methoxyphenyl)(4-morpholinopiperidine-1-yl)methanone]
[1]
  remaining binding at 1 µM: 87%
[2]
  remaining binding at 1 µM: 96%
[3]
  remaining binding at 1 µM: 97%
[4]
  remaining binding at 1 µM: 100%
[5]
  remaining binding at 1 µM: 74%
[6]
  remaining binding at 1 µM: 100%
[7]
  remaining binding at 1 µM: 66%
[8]
  remaining binding at 1 µM: 100%
[9]
  remaining binding at 1 µM: 100%

From patent US11208412B2 (DAEGU-GYEONGBUK MEDICAL INNOVATION FOUNDATION, priority 2017, dated 2021)
